Results from US12054495B2, “Substituted macrocyclic compounds and related methods of treatment” (Alkermes, Inc., priority 2019, dated 2024).

Legend:
[1] = target: T1, human orexin-2 receptor (OX2R) (Homo sapiens, UniProt O43614); assay: Human OX2R IP1 assay; assay type: cell-based; conditions: T-Rex CHO cells stably overexpressing human OX2R, IP1 accumulation, 1 hr at 37 degrees C; mean EC50; ∧ = racemic mixture
T1 construct: expressed in transfected cells
T1 sequence (O43614 1-444): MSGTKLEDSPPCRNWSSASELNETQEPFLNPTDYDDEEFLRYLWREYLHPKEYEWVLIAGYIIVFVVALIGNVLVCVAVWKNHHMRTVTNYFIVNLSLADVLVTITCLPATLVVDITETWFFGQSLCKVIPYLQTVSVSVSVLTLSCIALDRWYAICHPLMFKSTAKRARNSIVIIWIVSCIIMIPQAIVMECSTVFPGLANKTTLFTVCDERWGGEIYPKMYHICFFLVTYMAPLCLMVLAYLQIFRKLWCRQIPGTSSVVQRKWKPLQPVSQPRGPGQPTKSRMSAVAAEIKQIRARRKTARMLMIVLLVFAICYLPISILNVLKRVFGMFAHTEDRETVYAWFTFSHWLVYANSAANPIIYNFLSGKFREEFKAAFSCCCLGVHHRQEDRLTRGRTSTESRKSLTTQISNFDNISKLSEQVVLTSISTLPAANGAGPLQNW
Description: T-Rex CHO cells stably overexpressing the human orexin-2 receptor (OX2R) were induced overnight with 1 μg/mL of doxycycline in a T225 flask. 24 hours post induction, cells were lifted with accutase and plated into a 384-well proxy plate at 30,000 cells/well. Cells were then treated with different test compounds in 1× stimulation buffer containing 10 mM Hepes, 1 mM CaCl2), 0.5 mM MgCl2, 4.2 mM KCl, 146 mM NaCl, 5.5 mM glucose, and 50 mM LiCl, pH 7.4, for 1 hr at 37 degrees C. Following incubation, the reaction was terminated by the addition of detection mix, which is composed of IP1-d2 and anti-IP1-cryptate diluted in lysis buffer as well as 1× stimulation buffer. The plates were allowed to incubate for 1 hour at room temperature and were then read in the EnVision® multimode plate reader, measuring inositol phosphate levels.
Cisbio IP1 is a cell-based functional assay quantifying the accumulation of inositol monophosphate (IP), a metabolite released as a result of orexin 2 receptor activation through the phospholipase C-Gq signaling pathway. This is a competitive immunoassay in which the IP1 produced by the cells upon receptor activation competes with the IP1 analog coupled to the d2 fluorophore (acceptor) for binding to an anti-IP1 monoclonal antibody labeled with Eu cryptate (donor). The measured HTRF-FRET based signal is inversely proportional to the IP1 concentration produced.
The EC50 values reported in Table 2 were obtained according to the human OX2R IP1 assay described above. Data are the mean EC50 values ±S.E.M. The compound methyl (2R,3S)-3-((methylsulfonyl)amino)-2-(((cis-4-phenylcyclohexyl)oxy)methyl)-piperidine-1-carboxylate is a reference compound which is disclosed in Example 5 of PCT publication no. WO2017/135306.

human hepatocytes = assay: Hepatocytes stability assay (human hepatocytes); assay type: in vitro ADME; conditions: scaled hepatic clearance divided by liver blood flow, fu assumed unity
Description: (§1) In vitro metabolic stability was assessed using cryopreserved hepatocytes from male Sprague Dawley rats and a pool of 50 mixed gender humans (BioIVT, Baltimore, MD). The incubation mixtures were prepared by mixing 250 μL of pre-warmed KHB (Krebs-Henseleit buffer) containing 2×10^6 cell/mL of hepatocytes with 250 μL of pre-warmed KHB buffer containing 2 μM of test compounds in a 48-well plate, giving a final concentration of 1 μM test compound (0.1% DMSO) and 1×10^6 cell/mL of hepatocytes. The reaction mixture was incubated at 37 degrees C. A 50 μL aliquot of incubation mixture was taken at time points (0, 15, 30, 60, 120 and 240 minutes) and transferred into a 96-well plate containing 300 μL ice-cold acetonitrile (containing 30 ng/mL of labetalol and 10 ng/mL of Naltrexone-d3 as internal standards) and immediately placed in ice to terminate the reaction. Samples were centrifuged, and supernatants were transferred into 96-well plates for liquid chromatography with tandem mass spectrometry (LC-MS/MS) analysis to monitor the depletion of the test compound.
(§2) Data was calculated as percent remaining by assuming zero-minute time point peak area ratio (analyte/IS) as 100% and dividing remaining time point peak area ratios by zero-minute time point peak area ratio. Data were fitted to a first-order decay model to determine half-life. From a plot of log (ln) peak area against time, the slope of the line was determined. Subsequently, half-life (T1/2) and intrinsic clearance (CLint) were calculated using the equations below: Elimination rate constant (k)=(−slope) Half-life (T1/2)min=0.693/k Intrinsic Clearance (CLint) (mL/min/million cells)=(V×0.693)/T1/2 V=incubation volume mL/number of cells The in vitro T1/2 was converted to in vitro intrinsic clearance (CLint,hep) in units of mL/min/kg using the formula shown below:
(§3) [formula] The in vitro intrinsic clearance (CLint,hep) was scaled to in vivo hepatic clearance (CL,hep) using the following equation which was adapted from a well-stirred model.
(§4) [formula] where Q is the liver blood flow and fu is the fraction unbound (assumed to be unity in this case). All parameters used in the calculation are shown below (Table 4).
(§5) The extraction ratio (ER) was calculated by dividing the hepatic clearance of a compound to the liver blood flow. The data reported in Table 5 were obtained according to the human hepatocytes stability assay described above.

[2] = Hepatocytes stability assay (human hepatocytes); assay type: in vitro ADME; conditions: both sexes, cryopreserved hepatocytes, 1 μM test compound, 1×10^6 cell/mL, 37 degrees C, read-out: CLint (μL/min/million cells)
Description: as §1, §2, §3, §4, §5

SMILES	EC50 [1] [nM]	Extraction Ratio (ER) (human hepatocytes)	hepatocyte CLint at 1 μM [2] [µL/min/1e6 cells]
CS(=O)(=O)N[C@H]1CCCN2C(=O)CCOc3ccccc3[C@H]3CC[C@H](CC3)OC[C@@H]12 [Compound 1]	< 100	–	–
CS(=O)(=O)N[C@H]1CCCN2C(=O)COc3ccccc3[C@H]3CC[C@H](CC3)OC[C@@H]12 [Compound 2]	< 100	–	–
CS(=O)(=O)N[C@H]1CCCN2C(=O)CCCCOc3ccccc3[C@H]3CC[C@H](CC3)OC[C@@H]12 [Compound 3]	> 1000	–	–
CS(=O)(=O)N[C@H]1CCCN2C(=O)CCCOc3ccccc3[C@H]3CC[C@H](CC3)OC[C@@H]12 [Compound 4]	< 100	–	–
CS(=O)(=O)N[C@H]1CCCN2CCCOc3ccccc3C3CCC(CC3)OCC12 (stereo partly drawn) [Compound 5]	–	0.90	63
CS(=O)(=O)N[C@H]1CCCN2CCCOc3ccccc3[C@H]3CC[C@H](CC3)OC[C@@H]12 [Compound 5]	> 1000	–	–
CS(=O)(=O)N[C@H]1CCCN2CCOc3ccccc3[C@H]3CC[C@H](CC3)OC[C@@H]12 [Compound 6]	< 100	–	–
CS(=O)(=O)N[C@H]1CCN2C(=O)COc3ccccc3[C@H]3CC[C@H](CC3)OC[C@@H]12 [Compound 7]	< 100	–	–
CS(=O)(=O)N[C@H]1CCCN2C(=O)CCc3ccccc3[C@H]3CC[C@H](CC3)OC[C@@H]12 [Compound 10]	100 to 1000	–	–
CS(=O)(=O)N[C@H]1CCCN2C(=O)COc3c(F)cccc3[C@H]3CC[C@H](CC3)OC[C@@H]12 [Compound 11]	< 100	–	–
CS(=O)(=O)N[C@H]1CCCN2C(=O)COc3c(F)cc(F)cc3[C@H]3CC[C@H](CC3)OC[C@@H]12 [Compound 12]	< 100	–	–
CS(=O)(=O)N[C@H]1CCCN2CCOc3c(F)cccc3[C@H]3CC[C@H](CC3)OC[C@@H]12 [Compound 13]	100 to 1000	–	–
CS(=O)(=O)N[C@H]1CCN2C(=O)COc3ncccc3[C@H]3CC[C@H](CC3)OC[C@@H]12 [Compound 18]	100 to 1000	–	–
CC1(C)Oc2ccccc2[C@H]2CC[C@H](CC2)OC[C@H]2[C@@H](NS(C)(=O)=O)CCCN2C1=O [Compound 36]	< 100	–	–
CS(=O)(=O)N[C@H]1CCN2CCOc3ccccc3[C@H]3CC[C@H](CC3)OC[C@@H]12 [Compound 39]	> 1000	–	–
CS(=O)(=O)N[C@H]1CCCN2C(=O)C(F)(F)Oc3ccccc3[C@H]3CC[C@H](CC3)OC[C@@H]12 [Compound 40]	< 100	–	–
CS(=O)(=O)N[C@H]1CCCN2CC(F)(F)Oc3ccccc3C3CCC(CC3)OCC12 (stereo partly drawn) [Compound 41]	–	0.90	60

SMILES	EC50 [1] [nM]	Extraction Ratio (ER) (human hepatocytes)	hepatocyte CLint at 1 μM [2] [µL/min/1e6 cells]
CS(=O)(=O)N[C@H]1CCCN2CC(F)(F)Oc3ccccc3[C@H]3CC[C@H](CC3)OC[C@@H]12 [Compound 41]	> 1000	–	–
CS(=O)(=O)N[C@H]1CCN2C(=O)COc3c(F)cccc3[C@H]3CC[C@H](CC3)OC[C@@H]12 [Compound 42]	< 100	–	–
CS(=O)(=O)N[C@H]1CCN2C(=O)COc3c(F)cc(F)cc3[C@H]3CC[C@H](CC3)OC[C@@H]12 [Compound 43]	< 100	–	–
CC1(C)CN2CCC[C@H](NS(C)(=O)=O)[C@@H]2CO[C@H]2CC[C@H](CC2)c2ccccc2O1 [Compound 44]	100 to 1000	–	–
CS(=O)(=O)N[C@H]1CCCN2C(=O)COc3ncccc3[C@H]3CC[C@H](CC3)OC[C@@H]12 [Compound 46]	< 100	–	–
CS(=O)(=O)N[C@H]1CCCN2C(=O)COc3ccc(Cl)cc3[C@H]3CC[C@H](CC3)OC[C@@H]12 [Compound 51]	< 100	–	–
CS(=O)(=O)N[C@H]1CCCN2C(=O)C(F)(F)Oc3c(F)cc(F)cc3[C@H]3CC[C@H](CC3)OC[C@@H]12 [Compound 52]	< 100	–	–
CS(=O)(=O)N[C@H]1CCN2C(=O)C(F)(F)Oc3ccccc3[C@H]3CC[C@H](CC3)OC[C@@H]12 [Compound 53]	< 100	–	–
CS(=O)(=O)N[C@H]1CCN2C(=O)C(F)(F)Oc3c(F)cc(F)cc3[C@H]3CC[C@H](CC3)OC[C@@H]12 [Compound 54]	< 100	–	–
CS(=O)(=O)N[C@H]1CCCN2C(=O)COc3nccnc3[C@H]3CC[C@H](CC3)OC[C@@H]12 [Compound 55]	< 100	–	–
CS(=O)(=O)N[C@H]1CCCN2C(=O)COc3nnccc3[C@H]3CC[C@H](CC3)OC[C@@H]12 [Compound 56]	100 to 1000	–	–
CS(=O)(=O)N[C@H]1CCCN2C(=O)COc3ccc(Br)cc3[C@H]3CC[C@H](CC3)OC[C@@H]12 [Compound 57]	< 100	–	–
CS(=O)(=O)N[C@H]1CCCN2CCOc3c(F)cc(F)cc3[C@H]3CC[C@H](CC3)OC[C@@H]12 [Compound 58]	100 to 1000	–	–
CS(=O)(=O)N[C@H]1CCCN2CC(F)(F)Oc3c(F)cc(F)cc3[C@H]3CC[C@H](CC3)OC[C@@H]12 [Compound 59]	100 to 1000	–	–
CS(=O)(=O)N[C@H]1CCCN2CCOc3ccc(Cl)cc3[C@H]3CC[C@H](CC3)OC[C@@H]12 [Compound 61]	> 1000	–	–
CS(=O)(=O)N[C@H]1CCCN2C(=O)COc3ncc(F)cc3[C@H]3CC[C@H](CC3)OC[C@@H]12 [Compound 64]	< 100	–	–
CS(=O)(=O)N[C@H]1CCCN2CCOc3ncccc3[C@H]3CC[C@H](CC3)OC[C@@H]12 [Compound 65]	100 to 1000	–	–
